Patent publication US12421253B2 (Mirati Therapeutics, Inc., priority 2020, dated 2025)

Assays:
[1] = target: T1, KRas^G12R (Homo sapiens, UniProt P01116, G12R); assay: KRas binding assay (TR-FRET displacement of Cy5 labelled tracer)
T1 construct: […]; biotin (biotinylated); purchased Accelegan Inc
Method: (§2) The ability of a compound to bind to KRas was measured using a TR-FRET displacement assay. […] After a 60-minute incubation at room temperature, the reaction was measured using a BMG LABTECH CLARIO star Plus via TR-FRET. […] The POC values were fit to a 4-parameter IC50 equation and the IC50 value reported.

[2] = target: T2, KRas^G12V (Homo sapiens, UniProt P01116, G12V); assay: as above
T2 construct: […]; biotin (biotinylated); purchased Accelegan Inc
Method: as §2

[3] = target: T3, KRas^G12D (Homo sapiens, UniProt P01116, G12D); assay: as above
T3 construct: […]; biotin (biotinylated); purchased Accelegan Inc
T3 sequence (P01116 1-169 isoform P01116-2 G12D): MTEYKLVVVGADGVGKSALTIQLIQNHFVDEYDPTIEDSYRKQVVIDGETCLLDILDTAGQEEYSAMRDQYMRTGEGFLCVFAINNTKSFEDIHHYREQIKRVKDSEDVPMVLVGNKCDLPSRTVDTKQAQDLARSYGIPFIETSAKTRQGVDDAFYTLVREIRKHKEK
Method: as §2

[4] = tested on: H460 cells, pERK; assay: Inhibition of KRas phosphorylation of ERK (Cisbio HTRF Advanced pERK assay); assay type: cell-based; details: Homo sapiens, NCI-H460, 3 hrs, read-out: Inhibition (HTRF IC50 nM) of KRas-mediated Phosphorylation of ERK, H460
In short: (§1)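 Cells were seeded overnight in RPMI with 10% FBS, then treated for 3 h at 37 °C with 10-dose, 3-fold compound titrations from 10 uM (0.8% DMSO final). After lysis at 4 °C, phospho-ERK was quantified by HTRF using d2- and cryptate-labelled antibodies; 0.2 uM trametinib served as minimum control.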

[5] = tested on: HCT116 cells, pERK; assay: as above; assay type: cell-based; details: Homo sapiens, HCT-116, 3 hrs, read-out: Inhibition (HTRF IC50 nM) of KRas-mediated Phosphorylation of ERK, HCT116
In short: as §1

[6] = tested on: PSN1 cells, pERK; assay: as above; assay type: cell-based; details: Homo sapiens, PSN1, 3 h, read-out: Inhibition (HTRF IC50 nM) of KRas-mediated Phosphorylation of ERK, PSN1
In short: as §1

[7] = tested on: MKN1 cells, pERK; assay: as above; assay type: cell-based; details: Homo sapiens, MKN-1, 3 h, read-out: Inhibition (HTRF IC50 nM) of KRas-mediated Phosphorylation of ERK, MKN1
In short: as §1

[8] = tested on: ASPC1 cells, pERK; assay: as above; assay type: cell-based; details: Homo sapiens, ASPC1, 3 h, AsPC-1 cells, read-out: Inhibition (HTRF IC50 nM) of KRas-mediated Phosphorylation of ERK, AsPC-1
In short: as §1

[9] = tested on: A549 cells, pERK; assay: as above; assay type: cell-based; details: Homo sapiens, 3 hrs, read-out: Inhibition (HTRF IC50 nM) of KRas-mediated Phosphorylation of ERK, A549
In short: as §1

[10] = tested on: H727 cells, pERK; assay: as above; assay type: cell-based; details: Homo sapiens, NCI-H727, 3 h, read-out: Inhibition (HTRF IC50 nM) of KRas-mediated Phosphorylation of ERK, H727
In short: as §1

T2 sequence (P01116 1-169 isoform P01116-2 G12V): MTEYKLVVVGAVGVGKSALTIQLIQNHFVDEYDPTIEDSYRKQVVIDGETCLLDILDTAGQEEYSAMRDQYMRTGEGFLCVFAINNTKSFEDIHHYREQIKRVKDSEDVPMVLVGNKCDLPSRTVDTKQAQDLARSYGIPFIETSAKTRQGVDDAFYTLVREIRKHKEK
T1 sequence (P01116 1-169 isoform P01116-2 G12R): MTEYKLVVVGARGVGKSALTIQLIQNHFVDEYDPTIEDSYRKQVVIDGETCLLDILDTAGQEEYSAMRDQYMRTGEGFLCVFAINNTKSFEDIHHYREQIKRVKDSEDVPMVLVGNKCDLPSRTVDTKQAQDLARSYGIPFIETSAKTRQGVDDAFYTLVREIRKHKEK

| SMILES | IC50 [1] [nM] | IC50 [2] [nM] | IC50 [3] [nM] | IC50 [4] [nM] | IC50 [5] [nM] | IC50 [6] [nM] | IC50 [7] [nM] | IC50 [8] [nM] | IC50 [9] [nM] | IC50 [10] [nM] |
| --- | --- | --- | --- | --- | --- | --- | --- | --- | --- | --- |
| CCc1c(F)ccc2cc(O)cc(N3CCc4c(nc(OC[C@@H]5CCCN5C)nc4N4CCCn5nc(C(=O)N(C)C)cc5C4)C3)c12 [Example 198, 5-[7-(8-ethyl-7-fluoro-3-hydroxy-1-naphthyl)-2-[[(2S)-1-methylpyrrolidin-2-yl]methoxy]-6,8-dihydro-5H-pyrido[3,4-d]pyrimidin-4-yl]-N,N-dimethyl-4,6,7,8-tetrahydropyrazolo[1,5-a][1,4]diazepine-2-carboxamide] | 5 | ≤ 2 | ≤ 2 | 1240 | 1950 | ≥ 10000 | 185 | 185 | 671 | 344 |
| CCc1c(F)ccc2cc(O)cc(N3CCc4c(nc(OCC5(CN(C)C)CC5)nc4N4CCCn5nc(C(=O)N(C)C)cc5C4)C3)c12 [Example 203, 5-(2-((1-((dimethylamino)methyl)cyclopropyl)methoxy)-7-(8-ethyl-7-fluoro-3-hydroxynaphthalen-1-yl)-5,6,7,8-tetrahydropyrido[3,4-d]pyrimidin-4-yl)-N,N-dimethyl-5,6,7,8-tetrahydro-4H-pyrazolo[1,5-a][1,4]diazepine-2-carboxamide] | 3 | 52 | ≤ 2 | 1100 | 1700 | ≥ 10000 | 181 | 132 | 524 | 283 |
| O=C1NC(=O)C2(CCCN(c3nc(OC[C@@]45CCCN4C[C@H](F)C5)nc4c3CCN(c3cc(O)cc5ccc(F)c(Br)c35)C4)C2)N1 (stereo partly drawn) [Example 217, 7-(7-(8-bromo-7-fluoro-3-hydroxynaphthalen-1-yl)-2-(((2R,7aS)-2-fluorohexahydro-1H-pyrrolizin-7a-yl)methoxy)-5,6,7,8-tetrahydropyrido[3,4-d]pyrimidin-4-yl)-1,3,7-triazaspiro[4.5]decane-2,4-dione] | ≤ 2 | ≤ 2 | ≤ 2 | 132 | 227 | 269 | 21 | 234 | 160 | 390 |
| O=C1NCC2(CCCN(c3nc(OC[C@@]45CCCN4C[C@H](F)C5)nc4c3CCN(c3cc(O)cc5ccc(F)c(Cl)c35)C4)C2)N1 (stereo partly drawn) [Example 228, 7-(7-(8-chloro-7-fluoro-3-hydroxynaphthalen-1-yl)-2-(((2R,7aS)-2-fluorohexahydro-1H-pyrrolizin-7a-yl)methoxy)-5,6,7,8-tetrahydropyrido[3,4-d]pyrimidin-4-yl)-1,3,7-triazaspiro[4.5]decan-2-one] | ≤ 2 | ≤ 2 | ≤ 2 | 253 | 405 | 696 | 24 | 108 | 146 | 197 |
| CN(C)C(=O)c1cc2n(n1)CCCN(c1nc(OC[C@@]34CCCN3C[C@H](F)C4)nc3c1CCN(c1cc(O)cc4ccc(F)c(Cl)c14)C3)C2 [Example 229, 5-(7-(8-chloro-7-fluoro-3-hydroxynaphthalen-1-yl)-2-(((2R,7aS)-2-fluorohexahydro-1H-pyrrolizin-7a-yl)methoxy)-5,6,7,8-tetrahydropyrido[3,4-d]pyrimidin-4-yl)-N,N-dimethyl-5,6,7,8-tetrahydro-4H-pyrazolo[1,5-a][1,4]diazepine-2-carboxamide] | ≤ 2 | ≤ 2 | ≤ 2 | 1400 | 1980 | 2140 | 317 | 220 | 705 | 260 |
